Experimental data taken from patent US12065436B2, “Cardiac sarcomere inhibitors” (Cytokinetics, Inc., priority 2018, dated 2024).

Target: bovine cardiac myofibrils (full-length cardiac myosin ATPase in the native sarcomere) (Bos taurus (Bovine), UniProt Q9BE39)
Test: Skinned bovine cardiac myofibril ATPase assay (PK/LDH-coupled)
Type: biochemical
Settings: Ca2+ activating to 75% of maximal rate; for CDMF75 IC15: concentration giving 15% inhibition; for IC50: read-out: CDMF75 IC50
Summary of the method: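 Triton-skinned bovine left-ventricle myofibrils (1 mg/mL) in PM 12 buffer (12 mM PIPES, 2 mM MgCl2, pH 6.8) with 50 μM ATP, 0.6 mM EGTA and CaCl2 set for 50% or 75% activation. Steady-state ATPase inhibition followed by PK/LDH-coupled NADH oxidation at 340 nm.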

Chain of bovine cardiac myofibrils (full-length cardiac myosin ATPase in the native sarcomere) (Q9BE39 whole entry): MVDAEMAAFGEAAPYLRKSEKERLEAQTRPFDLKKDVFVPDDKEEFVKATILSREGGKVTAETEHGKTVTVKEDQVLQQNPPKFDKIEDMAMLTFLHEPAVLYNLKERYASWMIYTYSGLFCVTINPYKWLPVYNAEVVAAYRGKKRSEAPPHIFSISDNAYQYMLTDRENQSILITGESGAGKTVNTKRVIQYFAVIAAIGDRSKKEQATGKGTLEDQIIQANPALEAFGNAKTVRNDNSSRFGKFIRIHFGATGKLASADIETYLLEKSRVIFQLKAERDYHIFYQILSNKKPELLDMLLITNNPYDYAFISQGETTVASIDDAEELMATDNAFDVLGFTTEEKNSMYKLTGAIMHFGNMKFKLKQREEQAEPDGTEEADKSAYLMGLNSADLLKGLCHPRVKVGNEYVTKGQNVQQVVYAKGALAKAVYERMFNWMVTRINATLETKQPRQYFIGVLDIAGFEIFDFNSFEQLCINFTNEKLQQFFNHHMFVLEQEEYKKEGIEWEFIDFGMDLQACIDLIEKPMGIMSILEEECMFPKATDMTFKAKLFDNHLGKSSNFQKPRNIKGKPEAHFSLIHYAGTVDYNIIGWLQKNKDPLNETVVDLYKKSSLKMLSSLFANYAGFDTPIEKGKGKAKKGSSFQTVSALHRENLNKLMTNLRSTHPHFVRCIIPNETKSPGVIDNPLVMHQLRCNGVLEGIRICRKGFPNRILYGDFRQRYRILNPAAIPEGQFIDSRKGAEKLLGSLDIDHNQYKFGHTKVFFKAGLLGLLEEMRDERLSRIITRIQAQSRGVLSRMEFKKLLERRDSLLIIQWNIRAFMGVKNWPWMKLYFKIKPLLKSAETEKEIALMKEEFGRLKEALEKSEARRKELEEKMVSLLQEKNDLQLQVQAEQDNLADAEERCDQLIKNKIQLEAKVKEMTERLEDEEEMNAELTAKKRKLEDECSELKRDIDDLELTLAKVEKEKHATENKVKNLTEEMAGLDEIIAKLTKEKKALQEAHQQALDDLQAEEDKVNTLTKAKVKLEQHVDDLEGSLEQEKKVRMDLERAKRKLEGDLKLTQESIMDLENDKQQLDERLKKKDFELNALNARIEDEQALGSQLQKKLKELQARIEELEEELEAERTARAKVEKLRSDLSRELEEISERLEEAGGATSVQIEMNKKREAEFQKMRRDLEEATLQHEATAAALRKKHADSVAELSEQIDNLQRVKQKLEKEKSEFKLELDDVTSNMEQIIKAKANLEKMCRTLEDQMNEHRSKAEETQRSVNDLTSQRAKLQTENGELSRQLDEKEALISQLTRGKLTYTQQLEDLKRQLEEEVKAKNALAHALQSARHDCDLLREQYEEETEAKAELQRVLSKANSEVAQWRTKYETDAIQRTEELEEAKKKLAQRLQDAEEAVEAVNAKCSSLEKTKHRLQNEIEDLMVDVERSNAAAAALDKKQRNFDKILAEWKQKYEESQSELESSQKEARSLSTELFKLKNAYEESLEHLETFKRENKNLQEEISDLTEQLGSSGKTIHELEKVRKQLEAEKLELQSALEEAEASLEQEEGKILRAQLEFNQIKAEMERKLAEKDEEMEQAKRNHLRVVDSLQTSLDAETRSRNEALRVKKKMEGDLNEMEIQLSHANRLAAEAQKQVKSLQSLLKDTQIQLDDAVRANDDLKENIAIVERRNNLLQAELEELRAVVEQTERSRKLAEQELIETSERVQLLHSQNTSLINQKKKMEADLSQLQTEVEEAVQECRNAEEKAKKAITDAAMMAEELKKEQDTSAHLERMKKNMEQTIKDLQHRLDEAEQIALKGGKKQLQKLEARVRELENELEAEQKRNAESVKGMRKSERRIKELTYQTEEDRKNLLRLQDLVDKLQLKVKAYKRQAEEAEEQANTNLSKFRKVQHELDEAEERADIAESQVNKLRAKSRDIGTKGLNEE
Chain of bovine cardiac myofibrils (full-length cardiac myosin ATPase in the native sarcomere) (P85100 whole entry partner): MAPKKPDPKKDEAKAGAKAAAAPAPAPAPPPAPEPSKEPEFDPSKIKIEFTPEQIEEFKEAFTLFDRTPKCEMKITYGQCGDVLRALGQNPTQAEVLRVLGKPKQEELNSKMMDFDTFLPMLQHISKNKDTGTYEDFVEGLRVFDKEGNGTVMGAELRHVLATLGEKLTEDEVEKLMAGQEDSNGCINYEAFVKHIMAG
Chain of bovine cardiac myofibrils (full-length cardiac myosin ATPase in the native sarcomere) (Q3SZE5 whole entry partner): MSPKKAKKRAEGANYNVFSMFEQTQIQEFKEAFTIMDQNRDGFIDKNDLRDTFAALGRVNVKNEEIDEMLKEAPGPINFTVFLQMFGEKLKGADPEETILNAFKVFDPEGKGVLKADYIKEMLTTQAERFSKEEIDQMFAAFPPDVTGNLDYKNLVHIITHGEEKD

Compound	CDMF75 IC15 [nM]	IC50 [nM]
CCc1nc(-c2ccc3c(c2)CC[C@H]3NC(=O)c2cnc(C)s2)no1 [Compound 595, (R)-N-(5-(5-ethyl-1,2,4-oxadiazol-3-yl)-2,3-dihydro-1H-inden-1-yl)-2-methylthiazole-5-carboxamide]	300	1000
CCc1nc(-c2ccc3c(c2)CC[C@H]3NC(=O)c2cn(CCOC)nc2C)no1 [Compound 596, (R)-N-(5-(5-ethyl-1,2,4-oxadiazol-3-yl)-2,3-dihydro-1H-inden-1-yl)-1-(2-methoxyethyl)-3-methyl-1H-pyrazole-4-carboxamide]	800	2500
CCc1nc(-c2ccc3c(c2)CC[C@H]3NC(=O)c2cn(CCO)nc2C)no1 [Compound 597, (R)-N-(5-(5-ethyl-1,2,4-oxadiazol-3-yl)-2,3-dihydro-1H-inden-1-yl)-1-(2-hydroxyethyl)-3-methyl-1H-pyrazole-4-carboxamide]	500	1900
CCc1nc(-c2ccc3c(c2)CC[C@H]3NC(=O)c2cnn(CCCOC)c2C)no1 [Compound 598, (R)-N-(5-(5-ethyl-1,2,4-oxadiazol-3-yl)-2,3-dihydro-1H-inden-1-yl)-1-(3-methoxypropyl)-5-methyl-1H-pyrazole-4-carboxamide]	3900	15700
COCCCn1cc(C(=O)N[C@@H]2CCc3cc(-c4noc(C5CC5)n4)ccc32)cn1 [Compound 600, (R)-N-(5-(5-cyclopropyl-1,2,4-oxadiazol-3-yl)-2,3-dihydro-1H-inden-1-yl)-1-(3-methoxypropyl)-1H-pyrazole-4-carboxamide]	3500	16500
O=C(N[C@@H]1CCc2cc(-c3noc(C4CC4)n3)ccc21)c1cnn(CCCO)c1 [Compound 601, (R)-N-(5-(5-cyclopropyl-1,2,4-oxadiazol-3-yl)-2,3-dihydro-1H-inden-1-yl)-1-(3-hydroxypropyl)-1H-pyrazole-4-carboxamide]	1600	7300
CCc1nc(-c2ccc3c(c2)CC[C@H]3NC(=O)c2ccn(CCOC)n2)no1 [Compound 602, (R)-N-(5-(5-ethyl-1,2,4-oxadiazol-3-yl)-2,3-dihydro-1H-inden-1-yl)-1-(2-methoxyethyl)-1H-pyrazole-3-carboxamide]	4100	16900
CCc1nc(-c2ccc3c(c2)CC[C@H]3NC(=O)c2ccc(=O)[nH]c2)no1 [Compound 603, (R)-N-(5-(5-ethyl-1,2,4-oxadiazol-3-yl)-2,3-dihydro-1H-inden-1-yl)-6-oxo-1,6-dihydropyridine-3-carboxamide]	300	1000
CCc1nc(-c2ccc3c(c2)CC[C@H]3NC(=O)c2ccc(=O)[nH]c2)no1 [Compound 604, (R)-N-(5-(5-ethyl-1,2,4-oxadiazol-3-yl)-2,3-dihydro-1H-inden-1-yl)-6-oxo-1,6-dihydropyridine-3-carboxamide]	300	900
CCc1nc(-c2ccc3c(c2)CC[C@H]3NC(=O)c2ccc(=O)n(CCO)c2)no1 [Compound 605, (R)-N-(5-(5-ethyl-1,2,4-oxadiazol-3-yl)-2,3-dihydro-1H-inden-1-yl)-1-(2-hydroxyethyl)-6-oxo-1,6-dihydropyridine-3-carboxamide]	800	3400
CCc1nc(-c2ccc3c(c2)CC[C@H]3NC(=O)c2ccc(=O)n(CCOC)c2)no1 [Compound 606, (R)-N-(5-(5-ethyl-1,2,4-oxadiazol-3-yl)-2,3-dihydro-1H-inden-1-yl)-1-(2-methoxyethyl)-6-oxo-1,6-dihydropyridine-3-carboxamide]	4600	22600
CCc1nc(-c2ccc3c(c2)CC[C@H]3NC(=O)c2ccnn2CCO)no1 [Compound 607, (R)-N-(5-(5-ethyl-1,2,4-oxadiazol-3-yl)-2,3-dihydro-1H-inden-1-yl)-1-(2-hydroxyethyl)-1H-pyrazole-5-carboxamide]	2900	15400
CCc1nc(-c2ccc3c(c2)CC[C@H]3NC(=O)c2ccn(CCO)n2)no1 [Compound 608, (R)-N-(5-(5-ethyl-1,2,4-oxadiazol-3-yl)-2,3-dihydro-1H-inden-1-yl)-1-(2-hydroxyethyl)-1H-pyrazole-3-carboxamide]	1200	4600
CCc1nc(-c2cc(O)c3c(c2)CC[C@H]3NC(=O)c2cnn(C)c2)no1 [Compound 609, N-[(1R)-5-(5-ethyl-1,2,4-oxadiazol-3-yl)-7-hydroxy-2,3-dihydro-1H-inden-1-yl]-1-methyl-1H-pyrazole-4-carboxamide]	300	900
CCc1nc(-c2ccc3c(c2)CC[C@H]3NC(=O)c2ccnc(C(C)(C)O)c2)no1 [Compound 610, (R)-N-(5-(5-ethyl-1,2,4-oxadiazol-3-yl)-2,3-dihydro-1H-inden-1-yl)-2-(2-hydroxypropan-2-yl)isonicotinamide]	2000	8600
CCc1nc(-c2ccc3c(c2)CC[C@H]3NC(=O)c2cnn(CCCO)c2C)no1 [Compound 611, (R)-N-(5-(5-ethyl-1,2,4-oxadiazol-3-yl)-2,3-dihydro-1H-inden-1-yl)-1-(3-hydroxypropyl)-5-methyl-1H-pyrazole-4-carboxamide]	700	2500
CCc1nc(-c2ccc3c(c2)CC[C@H]3NC(=O)c2cn(CCCO)nc2C)no1 [Compound 612, (R)-N-(5-(5-ethyl-1,2,4-oxadiazol-3-yl)-2,3-dihydro-1H-inden-1-yl)-1-(3-hydroxypropyl)-3-methyl-1H-pyrazole-4-carboxamide]	700	2100
CCc1nc(-c2ccc3c(c2)CC[C@H]3NC(=O)c2cnc(CO)n2C)no1 [Compound 613, (R)-N-(5-(5-ethyl-1,2,4-oxadiazol-3-yl)-2,3-dihydro-1H-inden-1-yl)-2-(hydroxymethyl)-1-methyl-1H-imidazole-5-carboxamide]	400	1400
CCc1nc(-c2ccc3c(c2)CC[C@H]3NC(=O)c2ccc(=O)n(CC(=O)O)c2)no1 [Compound 614, (R)-2-(5-((5-(5-ethyl-1,2,4-oxadiazol-3-yl)-2,3-dihydro-1H-inden-1-yl)carbamoyl)-2-oxopyridin-1(2H)-yl)acetic acid]	3400	14700
CCc1nc(-c2ccc3c(c2)CC[C@H]3NC(=O)c2cnon2)no1 [Compound 615, (R)-N-(5-(5-ethyl-1,2,4-oxadiazol-3-yl)-2,3-dihydro-1H-inden-1-yl)-1,2,5-oxadiazole-3-carboxamide]	400	1400
CCc1nc(-c2ccc3c(c2)CC[C@H]3NC(=O)c2cn(C)nn2)no1 [Compound 616, (R)-N-(5-(5-ethyl-1,2,4-oxadiazol-3-yl)-2,3-dihydro-1H-inden-1-yl)-1-methyl-1H-1,2,3-triazole-4-carboxamide]	4500	22900
CCc1nc(-c2ccc3c(c2)CC[C@H]3NC(=O)c2nnc(C)o2)no1 [Compound 618, (R)-N-(5-(5-ethyl-1,2,4-oxadiazol-3-yl)-2,3-dihydro-1H-inden-1-yl)-5-methyl-1,3,4-oxadiazole-2-carboxamide]	300	1100
